{"source": "patent US10227668B2", "about": "“Method for preparing fructose or xylulose from biomass containing glucose or xylose using butanol, and method for separating the same” (KOREA RESEARCH INSTITUTE OF CHEMICAL TECHNOLOGY, priority 2016, dated 2019)", "key": {"Solubility in 1-butanol": {"assay": "Solubility in 1-butanol", "assay_type": "physicochemical", "details": "per 100 g 1-butanol, 50° C.", "excerpt": "As a result, glucose having remarkably low solubility at the corresponding temperature can be selectively crystallized, thereby easily separating the glucose by filtration."}, "[1]": {"details": "@ 40° C.; cited from earlier work"}, "[2]": {"details": "@ 40° C.; cited from earlier work", "remark": "listed apart in the source"}}}
{"smiles": "O=C(CO)[C@@H](O)[C@H](O)[C@H](O)CO", "note": "[fructose]", "values": [{"measurement": "solubility in 1-butanol", "setting": "Solubility in 1-butanol", "result": 32, "unit": "g"}, {"measurement": "solubility in methanol", "setting": "[1]", "result": 229.7, "unit": "mg/mL"}, {"measurement": "solubility in ethanol", "setting": "[2]", "result": 36.3, "unit": "mg/mL"}]}
